Test results published in US8153809B2, “Dihydropyridone ureas as P2X7 modulators” (Roche Palo Alto LLC, priority 2008, dated 2012).

Biological target: T1, P2X7 (UniProt Q99572)
T1 sequence (Q99572 1-595): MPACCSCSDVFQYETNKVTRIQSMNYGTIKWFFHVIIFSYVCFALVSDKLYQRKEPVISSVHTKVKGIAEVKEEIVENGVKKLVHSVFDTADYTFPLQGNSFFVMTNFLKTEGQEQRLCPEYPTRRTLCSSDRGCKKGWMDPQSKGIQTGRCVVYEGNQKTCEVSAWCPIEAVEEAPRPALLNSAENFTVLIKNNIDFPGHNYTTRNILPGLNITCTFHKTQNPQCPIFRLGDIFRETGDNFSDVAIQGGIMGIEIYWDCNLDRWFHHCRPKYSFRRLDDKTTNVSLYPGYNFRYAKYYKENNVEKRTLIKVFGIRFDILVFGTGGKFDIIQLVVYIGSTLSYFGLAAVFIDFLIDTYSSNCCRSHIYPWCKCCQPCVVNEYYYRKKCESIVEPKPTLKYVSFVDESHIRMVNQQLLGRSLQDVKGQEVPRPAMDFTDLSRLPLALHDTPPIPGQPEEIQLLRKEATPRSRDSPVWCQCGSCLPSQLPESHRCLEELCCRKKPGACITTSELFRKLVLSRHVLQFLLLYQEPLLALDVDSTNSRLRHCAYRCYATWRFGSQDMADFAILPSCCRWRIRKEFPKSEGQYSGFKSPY
Assay: pIC50 values for P2X7 (Table 1)
Format: cell-based
In short: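 Fluo-3-loaded 1321N1 cells expressing human P2X7 or HEK293 cells expressing rat P2X7, preincubated 20 min at room temperature with antagonist in HBSS/Hepes/probenecid buffer with 2 mM CaCl2. BzATP agonist at 100 μM final (human) or 5 μM final (rat); fluorescence read 5 min, peak normalized to 5 μM ionomycin response.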

Compound	pIC50
COc1cc(NC(=O)N2C=CC(=O)C[C@H]2c2ccc(F)cc2)c(Br)cc1C#N [Compound 63, (S)-2-(4-Fluoro-phenyl)-4-oxo-3,4-dihydro-2H-pyridine-1-carboxylic acid (2-bromo-4-cyano-5-methoxy-phenyl)-amide]	6.74
O=C1C=CN(C(=O)NC23CC4CC(CC(C4)C2)C3)C(c2ccc(F)cc2)C1 (stereo not shown) [Compound 64, 2-(4-Fluoro-phenyl)-4-oxo-3,4-dihydro-2H-pyridine-1-carboxylic acid adamantan-1-ylamide]	5.98
COc1ccc(OC)c(NC(=O)N2C=CC(=O)CC2c2ccc(F)cc2)c1 (stereo not shown) [Compound 65, 2-(4-Fluoro-phenyl)-4-oxo-3,4-dihydro-2H-pyridine-1-carboxylic acid (2,5-dimethoxy-phenyl)-amide]	6.23
COC(=O)c1cccc(NC(=O)N2C=CC(=O)CC2c2ccc(F)cc2)c1C (stereo not shown) [Compound 66, 3-{[2-(4-Fluoro-phenyl)-4-oxo-3,4-dihydro-2H-pyridine-1-carbonyl]-amino}-2-methyl benzoic acid methyl ester]	6.8
COc1cccc(NC(=O)N2C=CC(=O)CC2c2ccc(F)cc2)c1 (stereo not shown) [Compound 67, 2-(4-Fluoro-phenyl)-4-oxo-3,4-dihydro-2H-pyridine-1-carboxylic acid (3-methoxy-phenyl)-amide]	6.31
COc1cc(NC(=O)N2C=CC(=O)C[C@H]2c2cccc(F)c2)ccc1C [Compound 70, (S)-2-(3-Fluoro-phenyl)-4-oxo-3,4-dihydro-2H-pyridine-1-carboxylic acid (3-methoxy-4-methyl-phenyl)-amide]	6.84
COc1cc(NC(=O)N2C=CC(=O)C[C@H]2c2ccc(F)cc2)ccc1Cl [Compound 71, (S)-2-(4-Fluoro-phenyl)-4-oxo-3,4-dihydro-2H-pyridine-1-carboxylic acid (4-chloro-3-methoxy-phenyl)-amide]	6.245
COc1cc(NC(=O)N2C=CC(=O)C[C@H]2c2cccc(F)c2)ccc1F [Compound 73, (S)-2-(3-Fluoro-phenyl)-4-oxo-3,4-dihydro-2H-pyridine-1-carboxylic acid (4-fluoro-3-methoxy-phenyl)-amide]	6.83
COc1cc(NC(=O)N2C=CC(=O)C[C@H]2c2ccc(F)cc2)ccc1F [Compound 76, (S)-2-(4-Fluoro-phenyl)-4-oxo-3,4-dihydro-2H-pyridine-1-carboxylic acid (4-fluoro-3-methoxy-phenyl)-amide]	6.76
Cc1cc(Br)c(NC(=O)N2C=CC(=O)C[C@H]2c2ccc(F)cc2)cc1C(=O)OC(C)(C)C [Compound 77, 4-Bromo-5-{[(S)-2-(4-fluoro-phenyl)-4-oxo-3,4-dihydro-2H-pyridine-1-carbonyl]amino}-2-methyl-benzoic acid tert-butyl ester]	6.67
COc1cc(NC(=O)N2C=CC(=O)C[C@H]2c2cc(F)cc(F)c2)c(Br)cc1C [Compound 78, (S)-2-(3,5-Difluoro-phenyl)-4-oxo-3,4-dihydro-2H-pyridine-1-carboxylic acid (2-bromo-5-methoxy-4-methyl-phenyl)-amide]	7.675
COc1cc(NC(=O)N2C=CC(=O)C[C@H]2c2ccc(F)c(F)c2)c(Br)cc1C [Compound 81, (S)-2-(3,4-Difluoro-phenyl)-4-oxo-3,4-dihydro-2H-pyridine-1-carboxylic acid (2-bromo-5-methoxy-4-methyl-phenyl)-amide]	7.54
O=C1C=CN(C(=O)Nc2c(F)cc(F)cc2Br)C(c2ccc(F)cc2)C1 (stereo not shown) [Compound 85, 2-(4-Fluoro-phenyl)-4-oxo-3,4-dihydro-2H-pyridine-1-carboxylic acid (2-bromo-4,6-difluoro-phenyl)-amide]	5
O=C1C=CN(C(=O)Nc2ccsc2Br)C(c2ccc(F)cc2)C1 (stereo not shown) [Compound 86, 2-(4-Fluoro-phenyl)-4-oxo-3,4-dihydro-2H-pyridine-1-carboxylic acid (2-bromo-thiophen-3-yl)-amide]	6.725
CCc1cc(OC)c(OC)cc1NC(=O)N1C=CC(=O)C[C@H]1c1ccc(F)cc1 [Compound 87, (S)-2-(4-Fluoro-phenyl)-4-oxo-3,4-dihydro-2H-pyridine-1-carboxylic acid (2-ethyl-4,5-dimethoxy-phenyl)-amide]	8.36
COc1ccc(NC(=O)N2C=CC(=O)C[C@H]2c2ccc(F)cc2)c(Br)c1 [Compound 89, (S)-2-(4-Fluoro-phenyl)-4-oxo-3,4-dihydro-2H-pyridine-1-carboxylic acid (2-bromo-4-methoxy-phenyl)-amide]	7.45
O=C1C=CN(C(=O)Nc2ccc3cc[nH]c3c2)C(c2ccc(F)cc2)C1 (stereo not shown) [Compound 90, 2-(4-Fluoro-phenyl)-4-oxo-3,4-dihydro-2H-pyridine-1-carboxylic acid (1H-indol-6-yl)-amide]	6.615
Cc1cc2cc(NC(=O)N3C=CC(=O)CC3c3ccc(F)cc3)ccc2o1 (stereo not shown) [Compound 91, 2-(4-Fluoro-phenyl)-4-oxo-3,4-dihydro-2H-pyridine-1-carboxylic acid (2-methyl-benzofuran-5-yl)-amide]	6.315

More lines, now with the values ahead:

pIC50	Compound
5.51	O=C1C=CN(C(=O)Nc2c(F)cccc2F)C(c2ccc(F)cc2)C1 (stereo not shown) [Compound 62, 2-(4-Fluoro-phenyl)-4-oxo-3,4-dihydro-2H-pyridine-1-carboxylic acid (2,6-difluoro-phenyl)-amide]
6.07	COc1ccc(NC(=O)N2C=CC(=O)CC2c2ccc(F)cc2)c(OC)c1 (stereo not shown) [Compound 69, 2-(4-Fluoro-phenyl)-4-oxo-3,4-dihydro-2H-pyridine-1-carboxylic acid (2,4-dimethoxy-phenyl)-amide]
6.295	COc1cc(NC(=O)N2C=CC(=O)C[C@H]2c2cccc(F)c2)ccc1Cl [Compound 72, (S)-2-(3-Fluoro-phenyl)-4-oxo-3,4-dihydro-2H-pyridine-1-carboxylic acid (4-chloro-3-methoxy-phenyl)-amide]
7.35	Cc1cc2ncccc2cc1NC(=O)N1C=CC(=O)C[C@H]1c1ccc(F)cc1 [Compound 74, (S)-2-(4-Fluoro-phenyl)-4-oxo-3,4-dihydro-2H-pyridine-1-carboxylic acid (7-methyl-quinolin-6-yl)-amide]
5.075	COc1cc(Br)c(CNC(=O)N2C=CC(=O)CC2c2ccc(F)cc2)cc1OC (stereo not shown) [Compound 75, 2-(4-Fluoro-phenyl)-4-oxo-3,4-dihydro-2H-pyridine-1-carboxylic acid 2-bromo-4,5-dimethoxy-benzylamide]
5.475	COc1cc(NC(=O)N2C=CC(=O)C[C@@H]2c2cc(F)cc(F)c2)c(Br)cc1C [Compound 79, (R)-2-(3,5-Difluoro-phenyl)-4-oxo-3,4-dihydro-2H-pyridine-1-carboxylic acid (2-bromo-5-methoxy-4-methyl-phenyl)-amide]
5	COc1cc(NC(=O)N2C=CC(=O)CC2c2ccc(F)cc2)cc(OC)c1OC (stereo not shown) [Compound 80, 2-(4-Fluoro-phenyl)-4-oxo-3,4-dihydro-2H-pyridine-1-carboxylic acid (3,4,5-trimethoxy-phenyl)-amide]
5.31	COc1cc(NC(=O)N2C=CC(=O)C[C@@H]2c2ccc(F)c(F)c2)c(Br)cc1C [Compound 82, (R)-2-(3,4-Difluoro-phenyl)-4-oxo-3,4-dihydro-2H-pyridine-1-carboxylic acid (2-bromo-5-methoxy-4-methyl-phenyl)-amide]
7.56	C[C@H](O)c1cc(NC(=O)N2C=CC(=O)C[C@H]2c2ccc(F)cc2)c(Br)cc1Cl [Compound 83, (S)-2-(4-Fluoro-phenyl)-4-oxo-3,4-dihydro-2H-pyridine-1-carboxylic acid [2-bromo-4-chloro-5-((S)-1-hydroxy-ethyl)-phenyl]-amide]
6.67	C[C@@H](O)c1cc(NC(=O)N2C=CC(=O)C[C@H]2c2ccc(F)cc2)c(Br)cc1Cl [Compound 84, (S)-2-(4-Fluoro-phenyl)-4-oxo-3,4-dihydro-2H-pyridine-1-carboxylic acid [2-bromo-4-chloro-5-((R)-1-hydroxy-ethyl)-phenyl]-amide]
6.32	COc1ccc(NC(=O)N2C=CC(=O)C[C@H]2c2cccc(F)c2)cc1OC [Compound 88, (S)-2-(3-Fluoro-phenyl)-4-oxo-3,4-dihydro-2H-pyridine-1-carboxylic acid (3,4-dimethoxy-phenyl)-amide]
8.023	Cc1cc(Cl)c(OCCO)cc1NC(=O)N1C=CC(=O)C[C@H]1c1ccc(F)cc1 [Compound 92, (S)-2-(4-Fluoro-phenyl)-4-oxo-3,4-dihydro-2H-pyridine-1-carboxylic acid [4-chloro-5-(2-hydroxy-ethoxy)-2-methyl-phenyl]-amide]
7.44	COC(=O)c1cccc(NC(=O)N2C=CC(=O)C[C@H]2c2ccc(F)cc2)c1C [Compound 93, 3-{[(S)-2-(4-Fluoro-phenyl)-4-oxo-3,4-dihydro-2H-pyridine-1-carbonyl]-amino}-2-methyl-benzoic acid methyl ester]
